Results: ChEMBL document CHEMBL1128774, “Substrate specificity of farnesyl diphosphate synthase from Bacillus stearothermophilus” (Bioorg Med Chem Lett, 1995)
The source made the active and inactive calls. No cut-off for these calls is given here.

Columns and labels:
[1] = test system: Farnesyl diphosphate synthase (Geobacillus stearothermophilus); test: Compound was tested for apparent Km values of Farnesyl diphosphate synthase from Bacteria; Active
[2] = test system: Farnesyl diphosphate synthase (Sus scrofa); test: Compound was tested for apparent Km values of Farnesyl diphosphate synthase from Pig liver; Active

Activity [1]: Active
Activity [2]: Active
Compound: C/C(=C\COP(=O)(O)OP(=O)(O)O)CCCO
